Results as given in patent US20150147403A1, “DERMATOLOGICAL COMPOSITION COMPRISING OLEOSOMES AND RETINOIDS, PROCESS FOR PREPARING THE SAME AND USE THEREOF” (GALDERMA RESEARCH & DEVELOPMENT, priority 2012, published 2015).

Tests used:
Format in all cases: physicochemical
[1] = Stability of compound A in solvents (HPLC-UV); settings: RT / 40° C.
Description: (§1) The object of this preformulation study is to identify lipophilic and hydrophilic solvents in which compound A is soluble, and in which it is chemically stable.
The stability of the active agent was evaluated by liquid chromatography coupled to a UV detector (HPLC-UV).

[2] = Solubility of compound A in various oily and aqueous solvents
Text: as §1

[3] = Stability study on compositions 1′ and 2: assay of compound A by HPLC; settings: under all the temperature conditions (4° C., RT, 40° C.); dissolved in the aqueous phase or in the oily liquid globules
Description: Composition 1′ of Example 2 and composition 2 of Example 3 were placed under various stability conditions: 4° C., room temperature and 40° C., for 3 months.
Compound A was assayed by HPLC. The results are expressed in mg/g.

[4] = in Caprylic/capric acid triglycerides (Miglyol 812N)
[5] = in PPG-15 stearyl ether (Arlamol E PSE15)
[6] = in Propylene glycol / absolute ethanol (20/80)

Stability ([1]; in Absolute ethanol): 3 months RT / 40 °C
Stability [1, 4]: 6 months RT / 40 °C
Stability [1, 5]: 6 months RT / 40 °C
Stability ([1]; in Phenoxyethanol): 6 months RT / 40 °C
Stability [1, 6]: 6 months RT / 40 °C
Stability ([1]; in Propylene glycol): 3 months RT / 40 °C
Maximum solubility (% m/m) ([2]; in Absolute ethanol): 0.92 % m/m
Maximum solubility (% m/m) [2, 4]: 0.019 % m/m
Maximum solubility (% m/m) [2, 5]: 0.292 % m/m
Maximum solubility (% m/m) ([2]; in Phenoxyethanol): 1.957 % m/m
Maximum solubility (% m/m) ([2]; in Propylene glycol): 0.11 % m/m
Maximum solubility (% m/m) [2, 6]: 1.08 % m/m
Chemical stability of compound A in the compositions [3]: 3 months
Structure (SMILES): CC(C)(C)c1cc(-c2cc(-c3ccc(C(=O)O)cc3)ccc2OCCO)ccc1N1CCCC1 [Compound A, 3″-tert-Butyl-4′-(2-hydroxyethoxy)-4″-pyrrolidin-1-yl-[1,1′;3′,1″]-terphenyl-4-carboxylic acid]
